Tested on: diesel fuel smoke lung injury (model of ARDS and SARS)
Set-up: species or system rats and rabbits
Conditions: in vivo, iv

Sar^9, Met (02) 11-Substance P
6-keto-PGF1α: decreased | PGE2: decreased | clara cell necrosis: attenuated | damage to the alveolar-capillary barrier membrane: attenuates | pulmonary alveolar macrophage number: reduced

Reference: US20100267616A1, “ACUTE R[…]” (ImmuneRegen Biosciences, Inc., priority 2003, published 2010)
